According to patent US20080206761A1, “Ex Vivo Gene Expression in Whole Blood as a Model of Assessment of Individual Variation to Dietary Supplements” (priority 2005, published 2008):

Assays:
IL-4 mRNA = experiment: PHA-induced IL-4 mRNA expression in heparinized whole blood ex vivo; assay type: cell-based, human; details: for ΔΔCt (mean ± standard deviation, n = 3), IL-4 mRNA: supplement 30 min, then 100 μg/mL PHA 2 h, concentrations per footnote
Description: (§1) In this embodiment, phytohemagglutinin-induced gene expression of interleukin-2 (IL-2), interleukin-4 (IL-4), and tumor necrosis factor-α (TNF-α) were quantitated in the following manner. Fifty μL of heparinized whole blood was incubated with various dietary supplements for a period of 30 minutes. The following supplements were employed: vitamins A, C, and D, epigallocatechin gallate (from green tea), genistein (from soy), and curcumin (from the spice turmeric). Vitamin A is known to stimulate the immune system. […] Vitamin D appears to have protective effects against certain cancers. Epigallocatechin gallate is a powerful antioxidant, appears to reduce the multidrug resistance found in cancer cells, and preferentially induces apoptosis in neoplastic cells. Genistein has been found in some studies to have anticarcinogenic activity; possible mechanisms of action include upregulation of apoptosis, inhibition of angiogenesis, inhibition of DNA topoisomerase II and inhibition of protein tyrosine kinases. Curcumin has proapoptotic effects in neoplastic cells and interferes with the activity of the transcription factor NF-κB, which is often highly overexpressed in such cells.
(§2) After incubation with the dietary supplement, 100 μg/mL phytohemagglutinin (PHA) was added and incubation was continued for an additional 2 hours at 37° C. The concentration of each dietary supplement (see Table I, note) was slightly higher than reported blood levels. Then mRNA was purified, cDNA was synthesized, and the levels of IL-2, IL-4, and TNF-α were quantitated by TaqMan real time polymerase chain reaction (PCR) (see Holland, et al., “Detection of specific polymerase chain reaction product by utilizing the 5′ to 3′ exonuclease activity of Thermus aquaticus DNA polymerase,” Proc Natl Acad Sci USA 1991; 88: 7276-80), as described below.
(§3) The mRNA and cDNA were prepared from the whole blood that was exposed to the dietary components, as well as the whole blood which remained unexposed. In brief, home-made 96-well filterplates were placed over collection plates, and 150 μl 5 mM Tris, pH 7.4, was applied. Following centrifugation at 120×g for 1 min at 4° C., 50 μl of blood samples were applied to each well and immediately centrifuged at 120×g for 2 min at 4° C., followed by washing of each well with 300 μl PBS once with centrifugation at 2000×g for 5 min at 4° C. Then, 60 μl stock lysis buffer, containing for example 0.5% N-Lauroylsarcosine, 4×SSC, 10 mM Tris HCl, pH 7.4, 1 mM EDTA, 0.1% IGEPAL CA-630, and 1.791 M guanidine thiocyanate, supplemented with 1% 2-mercaptoethanol (Bio Rad, Hercules, Calif., USA), 0.5 mg/ml proteinase K (Pierce, Rockford, Ill., USA), 0.1 mg/ml salmon sperm DNA (5 Prime Eppendorf/Brinkmann, Westbury, N.Y., USA), 0.1 mg/ml E. coli tRNA (Sigma), a cocktail of 10 mM each of the specific reverse primers shown in Table 2, and standard RNA34 oligonucleotides, were applied to the filterplates, followed by incubation at 37° C. for 10 min. The filterplates were then placed over oligo(dT)-immobilized microplates (GenePlate, RNAture), and centrifuged at 2000×g for 5 min at 4° C. Following overnight storage at 4° C., the microplates were washed with 100 μl plain lysis buffer 3 times, followed by 150 μl of wash buffer (0.5 M NaCl, 10 mM Tris, pH 7.4, 1 mM EDTA) 3 times at 4° C. The cDNA was directly synthesized in each well by adding 30 μl of buffer containing 1×RT-buffer, 1.25 mM each of dNTP, 4 units rRNasin, and 80 units of MMLV reverse transcriptase (Promega) (without primers), and incubation at 37° C. for 2 hours. The specific primer-primed cDNA existed in solution, and oligo(dT)-primed cDNA stayed immobilized in the microplate. […]

TNF-α mRNA = experiment: PHA-induced TNF-α mRNA expression in heparinized whole blood ex vivo; assay type: cell-based, human; details: supplement 30 min, then 100 μg/mL PHA 2 h, concentrations per footnote
Description: as §1, §2, §3

## CC1=C(/C=C/C(C)=C/C=C/C(C)=C/CO)C(C)(C)CCC1 [VA, vitamin A]
IL-4 mRNA; Subject 1
  ΔΔCt (mean ± standard deviation, n = 3), IL-4 mRNA: −2.14 ± 0.08
IL-4 mRNA; Subject 2
  ΔΔCt (mean ± standard deviation, n = 3), IL-4 mRNA: −1.56 ± 0.34
IL-4 mRNA; Subject 3
  ΔΔCt (mean ± standard deviation, n = 3), IL-4 mRNA: −0.15 ± 0.40
IL-4 mRNA; Subject 4
  ΔΔCt (mean ± standard deviation, n = 3), IL-4 mRNA: −0.98 ± 0.41
IL-4 mRNA; Subject 5
  ΔΔCt (mean ± standard deviation, n = 3), IL-4 mRNA: −1.24 ± 0.13
IL-4 mRNA; Subject 6
  ΔΔCt (mean ± standard deviation, n = 3), IL-4 mRNA: −0.65 ± 0.09
IL-4 mRNA; Subject 7
  ΔΔCt (mean ± standard deviation, n = 3), IL-4 mRNA: −1.15 ± 0.39
IL-4 mRNA; summary over 7 subjects of Table I
  effect on PHA-induced IL-4 expression, in words: enhanced IL-4 expression, with 1-3 exceptions
TNF-α mRNA; Subject 1
  ΔΔCt (mean ± standard deviation, n = 3), TNFα mRNA: −1.56 ± 0.11
TNF-α mRNA; Subject 2
  ΔΔCt (mean ± standard deviation, n = 3), TNFα mRNA: −0.57 ± 0.94
TNF-α mRNA; Subject 3
  ΔΔCt (mean ± standard deviation, n = 3), TNFα mRNA: 0.51 ± 0.03
TNF-α mRNA; Subject 4
  ΔΔCt (mean ± standard deviation, n = 3), TNFα mRNA: −0.08 ± 0.29
TNF-α mRNA; Subject 5
  ΔΔCt (mean ± standard deviation, n = 3), TNFα mRNA: −0.76 ± 0.34
TNF-α mRNA; Subject 6
  ΔΔCt (mean ± standard deviation, n = 3), TNFα mRNA: −0.50 ± 0.10
TNF-α mRNA; Subject 7
  ΔΔCt (mean ± standard deviation, n = 3), TNFα mRNA: −1.11 ± 0.24
